# Assay results: US20260042727A1, “COMPLEX OF 3-HYDROXY-3-METHYLBUTYRIC ACID AND SALT THEREOF, AND PREPARATION METHOD THEREFOR” (NANJING NUTRABUILDING BIO-TECH CO., LTD., priority 2023, published 2026)
# How the values were obtained:
# [1] = Solubility of 3-hydroxy-3-methylbutyrate salts and complexes; format: physicochemical
# Description: The solubility of various 3-hydroxy-3-methylbutyrate salts and the complexes of Examples was each determined.
# [2] = Stability (moisture content) at 23° C. and 92.5% humidity; format: physicochemical; settings: temperature 23° C., humidity 92.5%
# Experimental: The stability of various 3-hydroxy-3-methylbutyrate salts and the complexes of the present disclosure was each measured at 23° C. and 92.5% humidity, and the results are shown in Table 7.
Compound,Solubility [1] [g/100],moisture content ([2]; 30 min) [%],moisture content ([2]; 1 h) [%],moisture content ([2]; 2 h) [%],moisture content ([2]; 4 h) [%],moisture content ([2]; 6 h) [%],moisture content ([2]; 7 h) [%],moisture content ([2]; 11 h) [%],moisture content ([2]; 22 h) [%]
"CC(C)(O)CC(=O)O [HMB-Ca complex, 3-hydroxy-3-methylbutyric acid·calcium 3-hydroxy-3-methylbutyrate complex]",32,0.14,0.29,0.47,0.87,1.02,1.13,1.37,2.40
"CC(C)(O)CC(=O)[O-].[Na+] [sodium 3-hydroxy-3-methylbutyrate, reference compound]",72.9,0.32,0.65,1.07,1.98,2.32,2.58,3.13,5.47
"CC(C)(O)CC(=O)O [HMB-K complex, 3-hydroxy-3-methylbutyric acid·potassium 3-hydroxy-3-methylbutyrate complex]",225,0.29,0.59,0.97,1.80,2.11,2.35,2.85,4.98
magnesium 3-hydroxy-3-methylbutyrate [reference compound],6,0.11,0.23,0.38,0.70,0.81,0.91,1.10,1.92
"CC(C)(O)CC(=O)O [HMB-Na complex, 3-hydroxy-3-methylbutyric acid·sodium 3-hydroxy-3-methylbutyrate complex]",135,0.22,0.46,0.75,1.39,1.62,1.81,2.19,3.83
calcium 3-hydroxy-3-methylbutyrate [reference compound],–,0.19,0.38,0.63,1.16,1.36,1.51,1.83,3.20
"CC(C)(O)CC(=O)[O-].[K+] [potassium 3-hydroxy-3-methylbutyrate, reference compound]",101.1,0.42,0.85,1.39,2.57,3.02,3.35,4.07,7.11
